One assay deals with McA-RH7777 cells. Description: ATP released from cells after treatment (FIG. 10). The class given is cell-based, rat. An excerpt: (§1) FIG. 10 includes charts showing ATP released from MCA205, McA-RH7777, and Jurkat E6-1 cells at different numbers of pulses.
A further assay relates to MCA205 cells. Description: ATP released from cells after treatment (FIG. 10). The class given is cell-based, murine.
Source text: as §1

Where [1] appears, read: higher concentration (100 μM), rank among treatment groups (NPS 15 J/mL highest).
[2] abbreviates: both high and low concentrations (4 and 10 μM).

Molecules are shown by their SMILES.

As for `COc1cccc2c1C(=O)c1c(O)c3c(c(O)c1C2=O)C[C@@](O)(C(=O)CO)C[C@@H]3O[C@H]1C[C@H](N)[C@H](O)[C@H](C)O1` [doxorubicin], the ATP released entry in the assay on McA-RH7777 cells (setting [1]) and in the assay with MCA205 cells (setting [1]) was “second highest amount of ATP” throughout. Besides, the “ATP levels compared with untreated cells” value with MCA205 cells (100 μM) was “significantly higher”.

For the compound `O=C1c2c(O)ccc(O)c2C(=O)c2c(NCCNCCO)ccc(NCCNCCO)c21` [mitoxantrone], the ATP released entry in the assay on McA-RH7777 cells (setting [2]) and in the assay on MCA205 cells (setting [2]) was “comparatively small amount ATP” throughout.

For the origin of these results see US20170333112A1, “Optimizing Total Energy Delivered in Nanosecond Pulses for Triggering Apoptosis in Cultured Cells” (Pulse Biosciences, Inc., priority 2016, published 2017).
